Assay results taken from patent US20190008828A1, “METHODS FOR INHIBITING HUMAN IMMUNODEFICIENCY VIRUS (HIV) RELEASE FROM INFECTED CELLS” (priority 2015, published 2019).
Entries after “also recorded” stand apart in the source; their conditions may differ. Read-outs that look alike come from different tables or passages of the source.

B3: soluble human L-selectin (sCD62L) (receptor, UniProt P14151 39-332, looked up)
chain: WTYHYSEKPMNWQRARRFCRDNYTDLVAIQNKAEIEYLEKTLPFSRSYYWIGIRKIGGIWTWVGTNKSLTEEAENWGDGEPNNKKNKEDCVEIYIKRNKDAGKWNDDACHKLKAALCYTASCQPWSCSGHGECVEIINNYTCNCDVGYYGPQCQFVIQCEPLEAPELGTMDCTHPLGNFSFSSQCAFSCSEGTNLTGIEETTCGPFGNWSSPEPTCQVIQCEPLSAPDLGIMNCSHPLASFSFTSACTFICSEGTELIGKKKTICESSGIWSNPSPICQKLDKSFSMIKEGDYN
notes: also called soluble CD62L; recombinant CD62L

Tests used:
HIV-1BaL [1] = assay: HIV-1BaL infection of activated CD8-depleted PBMCs; format: cell-based; settings: for reduction of HIV-1BaL infection of CD4+ T cells: 5 μM
HIV-1 viral release = assay: HIV-1 release assay, CD4+ T cells of HIV-1-infected individuals; format: cell-based
Procedure: PBMCs were obtained by leukapheresis and ficoll-hypaque centrifugation. CD4+ T cells were isolated using a cell separation system (StemCell Technologies). Cells were cultured with medium alone or with plate-bound anti-CD3 and soluble anti-CD28 antibody in the absence (DMSO) or presence of BB-94 in duplicate for 48 hours. The copy number of virion-associated HIV RNA in the above cell culture supernatants was determined using the […]-1 Test, Version 2.0 (Roche Diagnostics). The limit of detection for this system is 20 copies/ml.

HIV-1BaL [2] = assay: Cell-cell transfer TZM-BL assay; settings: TZM-BL co-incubated with HIV-1BaL-infected activated CD8-depleted PBMCs
Procedure: For the cell-cell transfer assay, TZM-BL and TZM-62L cells were seeded in a 96-well, flat-bottom plate at 3,000 cells/well three days before the assay. Three days post infection with HIV-1BaL, activated CD8-depleted PBMCs with and without the presence of BB-94 were added to the wells at the concentration of 80×10^3, 40×10^3, 20×10^3, 10×10^3, and 5×10^3 cells/well with the volume of each well equalized using the CD8− PBMC media. Additional BB-94 was added to both the cells infected in the presence of BB-94 and a sample of cells that only received BB-94 treatment for the cell-cell transfer assay. All conditions were prepared in triplicate. The cell mixtures were incubated at 37° C. for three days, followed by lysis and measurement of the subsequent luciferase expression as per the manufacturer's instructions.

CD62L shedding = CD62L shedding on activated CD8-depleted PBMCs; format: cell-based, human; settings: 100 μM concentration; supernatant CD62L by ELISA
[3] = target: T1, CD62L-Fc binding to immobilized gp120 (Homo sapiens, UniProt P14151); assay: Soluble gp120 and CD62L ELISA in presence of inhibitors; settings: 10 mM EDTA or 10 mg/ml carbohydrates
T1 construct: Soluble gp120 and CD62L ELISA; Fc (IgG); purchased R&D Systems, Inc
T1 sequence (P14151 39-332 limits assumed): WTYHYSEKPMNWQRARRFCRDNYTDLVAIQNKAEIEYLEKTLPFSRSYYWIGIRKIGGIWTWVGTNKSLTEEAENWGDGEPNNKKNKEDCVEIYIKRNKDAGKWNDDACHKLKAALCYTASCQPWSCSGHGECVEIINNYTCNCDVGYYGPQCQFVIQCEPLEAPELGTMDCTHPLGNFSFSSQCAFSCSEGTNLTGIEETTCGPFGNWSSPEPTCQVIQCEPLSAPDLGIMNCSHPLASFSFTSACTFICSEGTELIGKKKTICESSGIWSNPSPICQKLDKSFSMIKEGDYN
Procedure: Fifty ng of gp120 proteins were immobilized in individual wells of a 96-well plate for 1 hour at room temperature in coating buffer (10 mM Tris [pH7.5] and 2 mM CaCl2), blocked for 1 hour using blocking buffer (10 mM Tris [pH7.5], 0.1% Tween20), and washed three times with the same buffer. […] The plate was washed five times and readout was colorimetric using a TMB substrate and analyzed on a SPECTRAMAX™ Plus 384 spectrophotometer (Molecular Devices).

[4] = target: T2, soluble human L-selectin (sCD62L) (Homo sapiens, UniProt P14151); assay: SPR (Biacore 3000), gp120 injected over immobilized CD62L
[5] = target: B3; assay: SPR (Biacore 3000), CD62L ligand against CD62L
[6] = target: T2, soluble human L-selectin (sCD62L); format: binding; settings: recombinant gp120 injected over immobilized CD62L, SPR; read-out: KD (nM), Solution KD for CD62L
[7] = target: T3, gp120 of strain PBJ (SIV) (SIV, UniProt P19503 23-535); assay: SPR (Biacore 3000), gp120 injected over immobilized CD62L
T3 sequence: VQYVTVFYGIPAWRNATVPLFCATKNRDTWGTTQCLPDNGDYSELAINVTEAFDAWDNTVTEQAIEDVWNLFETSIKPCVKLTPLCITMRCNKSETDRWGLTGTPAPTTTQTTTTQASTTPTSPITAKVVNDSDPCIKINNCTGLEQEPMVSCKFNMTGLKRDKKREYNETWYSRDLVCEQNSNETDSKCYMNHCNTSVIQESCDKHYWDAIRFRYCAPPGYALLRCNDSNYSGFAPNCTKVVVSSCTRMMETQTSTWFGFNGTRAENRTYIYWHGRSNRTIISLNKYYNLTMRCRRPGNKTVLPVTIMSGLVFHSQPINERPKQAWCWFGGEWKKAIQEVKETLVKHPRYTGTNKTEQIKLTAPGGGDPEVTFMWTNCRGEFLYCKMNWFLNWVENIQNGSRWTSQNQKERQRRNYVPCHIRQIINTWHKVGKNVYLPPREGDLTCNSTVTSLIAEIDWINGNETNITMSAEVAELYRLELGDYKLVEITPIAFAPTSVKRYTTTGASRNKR

Molecule: CNC(=O)[C@H](Cc1ccccc1)NC(=O)[C@H](CC(C)C)[C@H](CSc1cccs1)C(=O)NO [BB-94, Batimastat]
- reduction of HIV-1BaL infection of CD4+ T cells (HIV-1BaL [1]; day 6, intracellular p24): 60%
- reduction of HIV-1BaL infection of CD4+ T cells (HIV-1BaL [1]; day 11, intracellular p24): 80%
- inhibition of HIV-1 viral release among infected individuals (HIV-1 viral release; paired DMSO and BB-94 treatment, viremic and aviremic individuals): 30%-90%
- reduction in the viral infection of TZM-BL cells compared to the control (HIV-1BaL [2]): 80%

Molecule: O=P(O)(O)C(Cl)(Cl)P(=O)(O)O [DMDP, dichloromethylenediphosphonic acid]
- HIV-1BaL infection (HIV-1BaL [1]; 100 μM concentration, intracellular p24): showed no effect
- CD62L shedding (CD62L shedding): showed no effect
- activation-induced viral release, virion-associated HIV-1 RNA in supernatant (HIV-1 viral release; anti-CD3 stimulated CD4+ T cells from viremic and aviremic individuals, 48 hours): neither DMSO nor DMDP affected the viral release

Molecule: O=C(O)CN(CCN(CC(=O)O)CC(=O)O)CC(=O)O [EDTA]
- HIV-1BaL infection, intracellular viral capsid p24 (HIV-1BaL [1]; 5 mM EDTA): significantly reduced

Molecule: CC(=O)N[C@H]1C(O)O[C@H](CO)[C@@H](O)[C@@H]1O (stereo partly drawn) [N-acetylglucosamine, N-acetyl-D-glucosamine]
- gp120-CD62L binding in the presence of inhibitor [3]: not

Molecule: OC[C@H]1O[C@@H](O[C@H]2[C@H](O)[C@@H](O)C(O)O[C@@H]2CO)[C@H](O)[C@@H](O)[C@H]1O (some centres unmarked) [lactose]
- gp120-CD62L binding in the presence of inhibitor [3]: not

Molecule: Heparin
- gp120-CD62L binding in the presence of inhibitor [3]: competed with gp120 for receptor binding
- gp120-CD62L binding in the presence of inhibitor ([3]; listed as heparin): inhibited gp120 binding

Molecule: fucoidan
- gp120-CD62L binding in the presence of inhibitor [3]: inhibited gp120 binding; also recorded: competed with gp120 for receptor binding

Molecule: gp120 of strain 11530 (Clade A) (ligand)
- Kd [4]: 35 nM

Molecule: gp120 of strain CAP 88 (Clade C) (ligand)
- Kd [4]: 71 nM

Molecule: gp120 of strain R66M (Clade A/C) (ligand)
- Kd [4]: 18 nM

Molecule: gp120 of strain RV254 (Clade E) (ligand)
- Kd [4]: 15 nM

Molecule: gp120 of strain Z185 (Clade C) (ligand)
- Kd [4]: 58 nM

Molecule: recombinant gp120 from strain 20SF of Clade C (ligand)
- Kd [4]: 53 nM

Molecule: sialyl-Lewis X
- gp120-CD62L binding in the presence of inhibitor [3]: competed with gp120 for receptor binding
- gp120-CD62L binding in the presence of inhibitor ([3]; listed as Sialyl-Lewis): inhibited gp120 binding

Molecule: sialyllactose
- gp120-CD62L binding in the presence of inhibitor [3]: inhibited

Molecule: soluble mucin (PSM-II) (ligand)
- Kd [5]: 3800 nM

B1: PBJ: recombinant gp120, strain PBJ, SIV (protein)
chain: VQYVTVFYGIPAWRNATVPLFCATKNRDTWGTTQCLPDNGDYSELAINVTEAFDAWDNTVTEQAIEDVWNLFETSIKPCVKLTPLCITMRCNKSETDRWGLTGTPAPTTTQTTTTQASTTPTSPITAKVVNDSDPCIKINNCTGLEQEPMVSCKFNMTGLKRDKKREYNETWYSRDLVCEQNSNETDSKCYMNHCNTSVIQESCDKHYWDAIRFRYCAPPGYALLRCNDSNYSGFAPNCTKVVVSSCTRMMETQTSTWFGFNGTRAENRTYIYWHGRSNRTIISLNKYYNLTMRCRRPGNKTVLPVTIMSGLVFHSQPINERPKQAWCWFGGEWKKAIQEVKETLVKHPRYTGTNKTEQIKLTAPGGGDPEVTFMWTNCRGEFLYCKMNWFLNWVENIQNGSRWTSQNQKERQRRNYVPCHIRQIINTWHKVGKNVYLPPREGDLTCNSTVTSLIAEIDWINGNETNITMSAEVAELYRLELGDYKLVEITPIAFAPTSVKRYTTTGASRNKR
- Kd [6]: 19 ± 2 nM

B2: recombinant PSGL-1 (ligand, UniProt Q14242 42-295, looked up)
chain: QATEYEYLDYDFLPETEPPEMLRNSTDTTPLTGPGTPESTTVEPAARRSTGLDAGGAVTELTTELANMGNLSTDSAAMEIQTTQPAATEAQTTQPVPTEAQTTPLAATEAQTTRLTATEAQTTPLAATEAQTTPPAATEAQTTQPTGLEAQTTAPAAMEAQTTAPAAMEAQTTPPAAMEAQTTQTTAMEAQTTAPEATEAQTTQPTATEAQTTPLAAMEALSTEPSATEALSMEPTTKRGLFIPFSVSSVTHKG
notes: also called P-selectin glycoprotein ligand-1
- Kd [5]: 50000 nM

Molecule: B3
- Kd [7]: 19 nM
